Assay results as given in ChEMBL document CHEMBL3792372, “Modification of the length and structure of the linker of N(6)-benzyladenosine modulates its selective antiviral activity against enterovirus 71” (Eur J Med Chem, 2016).

Tests used:
[1] = Cytotoxicity against human RD cells; type: cell-based
[2] = Selectivity index, ratio of CC50 for human RD cells to EC50 for Enterovirus 71; type: toxicity, cell-based; conditions: read-out: Ratio CC50/EC50
Enterovirus A71 [3] = assay: Antiviral activity against Enterovirus 71 infected in human RD cells assessed as cell viability after 3 days by MTS assay; type: functional, organism-based; conditions: Enterovirus A, 72 h
Enterovirus A71 [4] = assay: Antiviral activity against Enterovirus 71 clinical isolate TW/96016/08 infected in human RD cells assessed as cell viability after 3 days by MTS assay; type: functional, organism-based; conditions: Enterovirus A, isolate TW/96016/08, RD, 72 h
Enterovirus A71 [5] = assay: Antiviral activity against Enterovirus 71 clinical isolate TW/1956/05 infected in human RD cells assessed as cell viability after 3 days by MTS assay; type: functional, organism-based; conditions: Enterovirus A, isolate TW/1956/05, RD, 72 h
Enterovirus A71 [6] = assay: Antiviral activity against Enterovirus 71 isolate TW/2429/04 infected in human RD cells assessed as cell viability after 3 days by MTS assay; type: functional, organism-based; conditions: Enterovirus A, isolate TW/2429/04, RD, 72 h
Enterovirus A71 [7] = assay: Antiviral activity against Enterovirus 71 clinical isolate H08300 461#812 infected in human RD cells assessed as cell viability after 3 days by MTS assay; type: functional, organism-based; conditions: Enterovirus A, isolate H08300 461#812, RD, 72 h
Enterovirus A71 [8] = assay: Antiviral activity against Enterovirus 71 clinical isolate TW/70902/08 infected in human RD cells assessed as cell viability after 3 days by MTS assay; type: functional, organism-based; conditions: Enterovirus A, isolate TW/70902/08, RD, 72 h
Enterovirus A71 [9] = assay: Antiviral activity against Enterovirus 71 clinical isolate 11316 infected in human RD cells assessed as cell viability after 3 days by MTS assay; type: functional, organism-based; conditions: Enterovirus A, isolate 11316, RD, 72 h

Row | SMILES | CC50 [1] | selectivity ratio [2] | EC50 (Enterovirus A71 [3]) | also measured
1 | OC[C@H]1O[C@@H](n2cnc3c(OCc4ccccc4)ncnc32)[C@H](O)[C@@H]1O | 191 µM | 37 | 5.1 µM | –
2 | OC[C@H]1O[C@@H](n2cnc3c(NCc4ccccc4)ncnc32)[C@H](O)[C@@H]1O [N6-BENZYLADENOSINE] | 4 µM | 14 | 0.28 µM | –
3 | c1ccc(CNc2ncnc3nc[nH]c23)cc1 [6-BENZYLAMINOPURINE] | 547 µM | 1300 | 0.42 µM | –
4 | OC[C@H]1O[C@@H](n2cnc3c(OCCc4ccccc4)ncnc32)[C@H](O)[C@@H]1O | 8.5 µM | – | > 8.5 µM | –
5 | OC[C@H]1O[C@@H](n2cnc3c(NCCc4ccccc4)ncnc32)C[C@@H]1O | > 352 µM | – | > 281 µM | –
6 | OC[C@H]1O[C@@H](n2cnc3c(Nc4ccccc4)ncnc32)[C@H](O)[C@@H]1O [N6-PHENYLADENOSINE] | 372 µM | – | > 291 µM | –
7 | OC[C@H]1O[C@@H](n2cnc3c(NCc4ccco4)ncnc32)[C@H](O)[C@@H]1O [KINETIN RIBOSIDE] | 7.8 µM | 5.6 | 1.4 µM | –
8 | OC[C@H]1O[C@@H](n2cnc3c(NCOCc4ccccc4)ncnc32)[C@H](O)[C@@H]1O | 525 µM | 175 | 3 µM | –
9 | OC[C@H]1O[C@@H](n2cnc3c(NCc4cn(COCc5ccccc5)nn4)ncnc32)[C@H](O)[C@@H]1O | 116 µM | – | > 116 µM | –
10 | OC[C@H]1O[C@@H](n2cnc3c(OCCCc4ccccc4)ncnc32)[C@H](O)[C@@H]1O | 182 µM | – | > 182 µM | –
11 | OC[C@H]1O[C@@H](n2cnc3c(NCCCCc4ccccc4)ncnc32)[C@H](O)[C@@H]1O | > 313 µM | – | > 250 µM | –
12 | OC[C@H]1O[C@@H](n2cnc3c(NCCc4ccccc4)ncnc32)[C@H](O)[C@@H]1O | 221 µM | 123 | 1.8 µM | EC50 (Enterovirus A71 [4]): 5.6 µM; EC50 (Enterovirus A71 [5]): 2.7 µM; EC50 (Enterovirus A71 [6]): 3.7 µM; EC50 (Enterovirus A71 [7]): 1.9 µM; EC50 (Enterovirus A71 [8]): 8.3 µM; EC50 (Enterovirus A71 [9]): 8.2 µM
13 | OC[C@H]1O[C@@H](n2cnc3c(NCCOc4ccccc4)ncnc32)C[C@@H]1O | > 337 µM | – | > 135 µM | –
14 | C[C@H]1O[C@@H](n2cnc3c(NCc4ccccc4)ncnc32)[C@H](O)[C@@H]1O | > 366 µM | > 54 | 6.7 µM | –
15 | OC[C@H]1O[C@@H](n2cnc3c(NCCOc4ccccc4)ncnc32)[C@H](O)[C@@H]1O | 107 µM | 25 | 4.3 µM | –
16 | CC(C)=CCNc1ncnc2c1ncn2[C@@H]1O[C@H](CO)[C@@H](O)[C@H]1O [RIBOPRINE] | 5.8 µM | 5.8 | 1 µM | –
17 | OC[C@H]1O[C@@H](n2cnc3c(NCCCOc4ccccc4)ncnc32)[C@H](O)[C@@H]1O | > 311 µM | – | > 311 µM | –
18 | OC[C@H]1O[C@@H](n2cnc3c(NCCCc4ccccc4)ncnc32)C[C@@H]1O | > 271 µM | – | > 271 µM | –
19 | O=C(Nc1ncnc2c1ncn2[C@@H]1O[C@H](CO)[C@@H](O)[C@H]1O)c1ccccc1 | > 337 µM | > 28 | 12 µM | –
20 | O=C(Nc1ncnc2c1ncn2C(CO)OC(CO)CO)c1ccccc1 (stereo unspecified) | > 335 µM | – | > 335 µM | –
21 | OC[C@H]1O[C@@H](n2cnc3c(NCCCc4ccccc4)ncnc32)[C@H](O)[C@@H]1O | 189 µM | 105 | 1.8 µM | –
22 | OCCn1cc(CNc2ncnc3c2ncn3[C@@H]2O[C@H](CO)[C@@H](O)[C@H]2O)nn1 | 317 µM | – | > 317 µM | –
23 | Cn1cc(CNc2ncnc3c2ncn3[C@@H]2O[C@H](CO)[C@@H](O)[C@H]2O)nn1 | 136 µM | – | > 136 µM | –
24 | C[C@H]1O[C@@H](n2cnc3c(NCCc4ccccc4)ncnc32)[C@H](O)[C@@H]1O | 463 µM | – | > 281 µM | –
25 | CC(C)=CCNc1ncnc2nc[nH]c12 | 325 µM | – | > 325 µM | –
26 | OC[C@H]1O[C@@H](n2cnc3c(NC/C=C/c4ccccc4)ncnc32)[C@H](O)[C@@H]1O | 426 µM | 645 | 0.66 µM | EC50 (Enterovirus A71 [4]): 2 µM; EC50 (Enterovirus A71 [5]): 1 µM; EC50 (Enterovirus A71 [6]): 1.16 µM; EC50 (Enterovirus A71 [7]): 0.38 µM; EC50 (Enterovirus A71 [8]): 2.5 µM; EC50 (Enterovirus A71 [9]): 2.2 µM
27 | OC[C@H]1O[C@@H](n2cnc3c(NCc4cn(Cc5ccccc5)nn4)ncnc32)[C@H](O)[C@@H]1O | > 285 µM | – | > 228 µM | –
28 | OC[C@H]1O[C@@H](n2cnc3c(NCc4ccccc4)ncnc32)C[C@@H]1O | > 366 µM | – | > 146 µM | –
29 | C=CCC#CCNc1ncnc2c1ncn2[C@@H]1O[C@H](CO)[C@@H](O)[C@H]1O | > 434 µM | > 88 | 4.9 µM | –
30 | OC[C@H]1O[C@@H](n2cnc3c(NCC#Cc4ccccc4)ncnc32)[C@H](O)[C@@H]1O | 72 µM | 124 | 0.58 µM | –
